Source: patent US9499550B2 (BRISTOL-MYERS SQUIBB COMPANY, priority 2012, dated 2016)
pEC50: −log10 of the molar value. Where two headings read alike, the source gives them in different places.

What was measured:
[1] = tested on: HCV genotype 1a (H77 strain) replicon in HUH-7 cells; assay: HCV replicon luciferase reporter assay, genotype 1a; type: cell-based; details: Hepatitis C virus, Huh-7, 72 h, 3 days incubation, read-out: LE_1a (EC50, range)
Outline: (§1)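 Replicon inhibition for both genotypes was measured as Renilla luciferase signal (EnduRen, 7.5 μM final, 2 h) after 3-day, 37° C exposure of replicon-bearing HUH-7 cells in 4% FCS DMEM, 0.5% DMSO. The 1b construct carries S1179I; the 1a H77 construct carries P1496L and S2204I. Twenty-point, 3-fold dilutions were fitted four-parametrically for EC50, and CC50 was taken from multiplexed Cell Titer-Blue.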

[2] = tested on: HCV genotype 1b (Con1) replicon in HUH-7 cells; assay: HCV replicon luciferase reporter assay, genotype 1b; type: cell-based; details: Hepatitis C virus, Huh-7, 72 h, 3 days incubation, read-out: LE_1b (EC50, range)
Outline: as §1

[3] = HCV genotype 1a replicon luciferase assay, range class
[4] = HCV genotype 1b replicon luciferase assay, range class
[5] = GETYPE1A, HCV genotype 1a replicon luciferase
[6] = GETYPE1B, HCV genotype 1b replicon luciferase
[7] = HCV genotype 1a replicon luciferase
[8] = HCV genotype 1b replicon luciferase

In the case of `C[C@H]1CC/C=C\[C@@H]2C[C@@]2(C(=O)NS(=O)(=O)C2CC2)NC(=O)[C@@H]2C[C@@H](Oc3ncc(OC4CC4)c4ccccc34)CN2C(=O)[C@@H](NC(=O)OC(C)(C)C(F)(F)F)[C@H](C)C1` [Compound 25, 1,1,1-trifluoro-2-methylpropan-2-yl((2R,6S,7R,9S,13aS,14aR,16aS,Z)-2-((4-cyclopropoxyisoquinolin-1-yl)oxy)-14a-((cyclopropylsulfonyl)carbamoyl)-7,9-dimethyl-5,16-dioxo-1,2,3,5,6,7,8,9,10,11,13a,14,14a,15,16,16a-hexadecahydrocyclopropa[e]pyrrolo[1,2-a][1,4]diazacyclopentadecin-6-yl)carbamate], the pEC50 [1, 3] was 6.99 to 8.32 and the pEC50 [2, 4] was 6.99 to 8.32.

`CC[C@@H]1C[C@H](C)CC/C=C\[C@@H]2C[C@@]2(C(=O)NS(=O)(=O)C2(C)CC2)NC(=O)[C@@H]2C[C@@H](Oc3cnc4ccc(OC)cc4n3)CN2C(=O)[C@H]1NC(=O)OC(C)(C)C(F)(F)F` [Compound 4219] was tested, and the pEC50 [1, 5] was > 8.26 and the pEC50 [2, 6] was > 8.26.

With `C[C@@H]1CC/C=C\[C@@H]2C[C@@]2(C(=O)NS(=O)(=O)C2CC2)NC(=O)[C@@H]2C[C@@H](Oc3ncc(OCC4CC4)c4ccccc34)CN2C(=O)[C@@H](NC(=O)CC(C)(C)C(F)(F)F)[C@H](C)C1` [Compound 4030] the pEC50 [1, 7] was > 8.26 and the pEC50 [2, 8] was > 8.26.

Work on `CCn1nc(O[C@@H]2C[C@H]3C(=O)N[C@]4(C(=O)NS(=O)(=O)C5(CF)CC5)C[C@H]4/C=C\CC[C@H](C)C[C@@H](C)[C@H](NC(=O)OC(C)(C)C(F)(F)F)C(=O)N3C2)c2ccccc2c1=O` [Compound 5077] yielded a pEC50 [1, 5] of 6.99 to 8.32 and a pEC50 [2, 6] of 6.99 to 8.32.

With `[2H]C([2H])([2H])C(OC(=O)N[C@@H]1C(=O)N2C[C@H](Oc3nccc4cc(OC)c(F)cc34)C[C@H]2C(=O)N[C@]2(C(=O)NS(=O)(=O)C3CC3)C[C@H]2/C=C\CC[C@@H](C)C[C@H]1CC)(C([2H])([2H])[2H])C(F)(F)F` [Compound 5471] the pEC50 [1, 7] was 8.30 to 9.00 and the pEC50 [2, 8] was 9.30 to 10.00.

Compound `COCCn1nc(O[C@@H]2C[C@H]3C(=O)N[C@]4(C(=O)NS(=O)(=O)C5CC5)C[C@H]4/C=C\CC[C@@H](C)C[C@@H](C)[C@H](NC(=O)OC(C)(C)C)C(=O)N3C2)c2ccccc2c1=O` [Compound 1008, tert-butyl ((2R,6S,7R,9R,13aS,14aR,16aS,Z)-14a-((cyclopropylsulfonyl)carbamoyl)-2-((3-(2-methoxyethyl)-4-oxo-3,4-dihydrophthalazin-1-yl)oxy)-7,9-dimethyl-5,16-dioxo-1,2,3,5,6,7,8,9,10,11,13a,14,14a,15,16,16a-hexadecahydrocyclopropa[e]pyrrolo[1,2-a][1,4]diazacyclopentadecin-6-yl)carbamate] has a pEC50 [1, 3] of 6.99 to 8.32 and a pEC50 [2, 4] of 6.99 to 8.32.

`CCOc1cnc(O[C@@H]2C[C@H]3C(=O)N[C@]4(C(=O)NS(=O)(=O)C5CC5)C[C@H]4/C=C\CC[C@@H](C)C[C@@H](C)[C@H](NC(=O)OC(C)(C)C)C(=O)N3C2)c2cc(F)ccc12` [Compound 4061, tert-butyl (2R,6S,7R,9R,13aS,14aR,16aS,Z)-14a-(cyclopropylsulfonylcarbamoyl)-2-(4-ethoxy-7-fluoroisoquinolin-1-yloxy)-7,9-dimethyl-5,16-dioxo-1,2,3,5,6,7,8,9,10,11,13a,14,14a,15,16,16a-hexadecahydrocyclopropa[e]pyrrolo[1,2-a][1,4]diazacyclopentadecin-6-ylcarbamate] was tested, and the pEC50 [1, 7] was > 8.26 and the pEC50 [2, 8] was > 8.26.

`CCOc1cc2ccccc2c(O[C@@H]2C[C@H]3C(=O)N[C@]4(C(=O)NS(=O)(=O)C5(CF)CC5)C[C@H]4/C=C\CC[C@@H](C)C[C@@H](C)[C@H](NC(=O)OC(C)(C)C(C)(F)F)C(=O)N3C2)n1` [Compound 6114, 3,3-difluoro-2-methylbutan-2-yl((2R,6S,7R,9R,13aS,14aR,16aS,Z)-2-((3-ethoxyisoquinolin-1-yl)oxy)-14a-(((1-(fluoromethyl)cyclopropyl)sulfonyl)carbamoyl)-7,9-dimethyl-5,16-dioxo-1,2,3,5,6,7,8,9,10,11,13a,14,14a,15,16,16a-hexadecahydrocyclopropa[e]pyrrolo[1,2-a][1,4]diazacyclopentadecin-6-yl)carbamate] gave a pEC50 [1, 7] of 8.30 to 9.00 and a pEC50 [2, 8] of 9.30 to 10.00.

For `COc1nnc(O[C@@H]2C[C@H]3C(=O)N[C@]4(C(=O)NS(=O)(=O)C5(C)CC5)C[C@H]4/C=C\CC[C@@H](C)C[C@@H](C)[C@H](NC(=O)O[C@@H]4C[C@@H]5C[C@@H]5C4)C(=O)N3C2)c2ccccc12` [Compound 5014, (1R,3r,5S)-bicyclo[3.1.0]hexan-3-yl((2R,6S,7R,9R,13aS,14aR,16aS,Z)-2-((4-methoxyphthalazin-1-yl)oxy)-7,9-dimethyl-14a-(((1-methylcyclopropyl)sulfonyl)carbamoyl)-5,16-dioxo-1,2,3,5,6,7,8,9,10,11,13a,14,14a,15,16,16a-hexadecahydrocyclopropa[e]pyrrolo[1,2-a][1,4]diazacyclopentadecin-6-yl)carbamate], the pEC50 [1, 7] was > 8.26 and the pEC50 [2, 8] was > 8.26.

For `COc1cnc(O[C@@H]2C[C@H]3C(=O)N[C@]4(C(=O)NS(=O)(=O)C5(CF)CC5)C[C@H]4/C=C\CC[C@@H](C)C[C@@H](C)[C@H](NC(=O)OC4(C(F)(F)F)CCCOC4)C(=O)N3C2)c2ccccc12` (stereo partly drawn) [Compound 1058, 3-(trifluoromethyl)tetrahydro-2H-pyran-3-yl((2R,6S,7R,9R,13aS,14aR,16aS,Z)-14a-(((1-(fluoromethyl)cyclopropyl)sulfonyl)carbamoyl)-2-((4-methoxyisoquinolin-1-yl)oxy)-7,9-dimethyl-5,16-dioxo-1,2,3,5,6,7,8,9,10,11,13a,14,14a,15,16,16a-hexadecahydrocyclopropa[e]pyrrolo[1,2-a][1,4]diazacyclopentadecin-6-yl)carbamate], the pEC50 [1, 3] was > 8.26 and the pEC50 [2, 4] was > 8.26.

Work on `COc1cc2c3c(nc(O[C@@H]4C[C@H]5C(=O)N[C@]6(C(=O)NS(=O)(=O)C7(C)CC7)C[C@H]6/C=C\CC[C@@H](C)C[C@@H](C)[C@H](NC(=O)OC(C)(C)C(F)(F)F)C(=O)N5C4)c2cc1F)OCCC3` [Compound 1196] yielded a pEC50 [1, 5] of 9.00 to 9.29 and a pEC50 [2, 6] of 9.00 to 9.29.

`C[C@@H]1CC/C=C\[C@@H]2C[C@@]2(C(=O)NS(=O)(=O)C2(C)CC2)NC(=O)[C@@H]2C[C@@H](Oc3ncc(N4CCOCC4)c4ccccc34)CN2C(=O)[C@@H](NC(=O)OC(C)(C)C)[C@H](C)C1` [Compound 5421, tert-butyl ((2R,6S,7R,9R,13aS,14aR,16aS,Z)-7,9-dimethyl-14a-(((1-methylcyclopropyl)sulfonyl)carbamoyl)-2-((4-morpholinoisoquinolin-1-yl)oxy)-5,16-dioxo-1,2,3,5,6,7,8,9,10,11,13a,14,14a,15,16,16a-hexadecahydrocyclopropa[e]pyrrolo[1,2-a][1,4]diazacyclopentadecin-6-yl)carbamate] showed a pEC50 [1, 7] of 8.30 to 9.00 and a pEC50 [2, 8] of 9.00 to 9.29.

For `COc1ccc2c(O[C@@H]3C[C@H]4C(=O)N[C@]5(C(=O)NS(=O)(=O)C6CC6)C[C@H]5/C=C\CC[C@@H](C)C[C@@H](C)[C@H](NC(=O)OC5(C)CC5)C(=O)N4C3)nccc2c1` [Compound 4054], the pEC50 [1, 7] was > 8.26 and the pEC50 [2, 8] was > 8.26.

`[2H]C([2H])([2H])Oc1cc2ccnc(O[C@@H]3C[C@H]4C(=O)N[C@]5(C(=O)NS(=O)(=O)C6(C)CC6)C[C@H]5/C=C\CC[C@@H](C)C[C@@H](CC)[C@H](NC(=O)OC(C)(C)C(F)(F)F)C(=O)N4C3)c2cc1F` [Compound 5503] gave a pEC50 [1, 7] of 8.30 to 9.00 and a pEC50 [2, 8] of 9.00 to 9.29.

Compound `COc1cnc(O[C@@H]2C[C@H]3C(=O)N[C@]4(C(=O)NS(=O)(=O)C5(CO)CC5)C[C@H]4/C=C\CC[C@@H](C)C[C@@H](C)[C@H](NC(=O)OC(C)(C)C(F)(F)F)C(=O)N3C2)c2ccccc12` [Compound 4110] has a pEC50 [1, 5] of 6.99 to 8.32 and a pEC50 [2, 6] of 6.99 to 8.32.

With `COc1cc2ccnc(O[C@@H]3C[C@H]4C(=O)N[C@]5(C(=O)NS(=O)(=O)C6(CF)CC6)C[C@H]5/C=C\CC[C@@H](C)C[C@@H](C)[C@H](NC(=O)OC(C)(C)C(F)(F)F)C(=O)N4C3)c2cc1F` [Compound 4161] the pEC50 [1, 5] was > 8.26 and the pEC50 [2, 6] was > 8.26.

With `C[C@H]1CC/C=C\[C@@H]2C[C@@]2(C(=O)NS(=O)(=O)C2CC2)NC(=O)[C@@H]2C[C@@H](Oc3ncc(OCC(F)F)c4ccccc34)CN2C(=O)[C@@H](NC(=O)OC(C)(C)C(F)(F)F)[C@H](C)C1` [Compound 1031, 1,1,1-trifluoro-2-methylpropan-2-yl((2R,6S,7R,9S,13aS,14aR,16aS,Z)-14a-((cyclopropylsulfonyl)carbamoyl)-2-((4-(2,2-difluoroethoxyl)isoquinolin-1-yl)oxy)-7,9-dimethyl-5,16-dioxo-1,2,3,5,6,7,8,9,10,11,13a,14,14a,15,16,16a-hexadecahydrocyclopropa[e]pyrrolo[1,2-a][1,4]diazacyclopentadecin-6-yl)carbamate] the pEC50 [1, 3] was 6.99 to 8.32 and the pEC50 [2, 4] was 6.99 to 8.32.

In the case of `COc1ccc2c(O[C@@H]3C[C@H]4C(=O)N[C@]5(C(=O)NS(=O)(=O)C6(CF)CC6)C[C@H]5/C=C\CC[C@H](C)C[C@@H](C)[C@H](NC(=O)OC(C)(C)C(F)(F)F)C(=O)N4C3)nc(N(C)C)nc2c1` [Compound 3009, 1,1,1-trifluoro-2-methylpropan-2-yl((2R,6S,7R,9S,13aS,14aR,16aS,Z)-2-((2-(dimethylamino)-7-methoxyquinazolin-4-yl)oxy)-14a-(((1-(fluoromethyl)cyclopropyl)sulfonyl)carbamoyl)-7,9-dimethyl-5,16-dioxo-1,2,3,5,6,7,8,9,10,11,13a,14,14a,15,16,16a-hexadecahydrocyclopropa[e]pyrrolo[1,2-a][1,4]diazacyclopentadecin-6-yl)carbamate], the pEC50 [1, 3] was 6.99 to 8.32 and the pEC50 [2, 4] was 6.99 to 8.32.
